Patent EP4772500A1, “NOVEL ISOXAZOLE COMPOUND AS TM4SF5-SPECIFIC INHIBITOR AND USE THEREOF” (Seoul National University R&DB Foundation, priority 2023, dated 2025)

Tested on: SNU449-TM4SF5 cells
Assay: qRT-PCR of cytokines/chemokines, fibrosis and T/NK cell related factors
Format: cell-based, human
Settings: 2.5 µM, 24 hours, SNU449-TM4SF5 (FIG. 8e-g)
Protocol: After disrupting cells or tissues using Qiazol (Qiagen, USA), chloroform was added thereto, and centrifugation was performed at 12,000x g and 4°C for 15 minutes for phase separation, followed by separating the upper […] layer. After adding isopropanol to the separated […] layer to precipitate RNA, it was washed with 70% ethanol. An RNA pellet was separated by centrifugation at 7,500x g for 5 minutes, and ethanol was evaporated for 10 minutes, followed by solubilization in 30 µl of DEPC-water. The solubilized RNA was reverse-transcribed using a reverse transcription kit (Toyobo, Japan) after removing gDNA to obtain cDNA. For the obtained cDNA, expression was measured by real-time PCR (Bio-Rad, USA) using 2x Eva green master mix (Labopass, Republic of Korea) and 0.4 µM forward/reverse primers. The expression level was calculated using Pfaffl's modified delta-delta Ct method.
Normal 22-week-old C57BL/6 mice were randomly divided into a normal chow diet (NCD) group and a Methionine-Choline Deficient (MCD) diet group, which is a non-alcoholic steatohepatitis (NASH) induction diet, with 3 to 6 mice per group, and were allowed free access to the diets for 4 weeks. Simultaneously, vehicle (DMSO) or ST-2-001 at a concentration of 5 mg/kg was treated twice a week per animal via intraperitoneal injection (IP). […]

COc1ccc(-c2cc(-c3ccc(NC(C)=O)cc3)no2)cc1 [ST-2-001, N-(4-(5-(4-methoxyphenyl)isoxazole-3-yl)phenyl)acetamide]
mRNA levels of inflammation-related cytokines/chemokines, liver fibrosis factors, and factors related to T cell or NK cell natural killer activation: inhibited
